Assay results published in patent US20100285959A1, “HERBICIDAL MIXTURES” (priority 2006, published 2010).

Tests used:
velvetleaf (ABUTH) [1] = experiment: Test 17 greenhouse, post- and preemergence; format: in vivo, Abutilon theophrasti; conditions: 12 DAA
Source text: Plants were watered as needed.

velvetleaf (ABUTH) [2] = experiment: Test 18 greenhouse, post- and preemergence; conditions: 15 DAA

Row | Structure (SMILES) | Obs response, scale 0 to 100 (velvetleaf (ABUTH) [1]; Postemergence, 7.5 g a.i./ha) | Obs response, scale 0 to 100 (velvetleaf (ABUTH) [1]; Postemergence, 15 g a.i./ha) | Obs response, scale 0 to 100 (velvetleaf (ABUTH) [1]; Postemergence, 30 g a.i./ha) | Obs response, scale 0 to 100 (velvetleaf (ABUTH) [1]; Preemergence, 7.5 g a.i./ha) | Obs response, scale 0 to 100 (velvetleaf (ABUTH) [1]; Preemergence, 15 g a.i./ha) | Obs response, scale 0 to 100 (velvetleaf (ABUTH) [1]; Preemergence, 30 g a.i./ha) | Postemergence ABUTH Obs (velvetleaf (ABUTH) [2]; alone at 7.5 g a.i./ha) | Preemergence ABUTH Obs (velvetleaf (ABUTH) [2]; alone at 7.5 g a.i./ha) | Postemergence ABUTH Obs (velvetleaf (ABUTH) [2]; alone at 15 g a.i./ha) | Preemergence ABUTH Obs (velvetleaf (ABUTH) [2]; alone at 15 g a.i./ha) | Postemergence ABUTH Obs (velvetleaf (ABUTH) [2]; alone at 30 g a.i./ha) | Preemergence ABUTH Obs (velvetleaf (ABUTH) [2]; alone at 30 g a.i./ha)
1 | Cc1nn(-c2cc(CC(Cl)C(=O)O)c(Cl)cc2F)c(=O)n1C(F)F (stereo not drawn) [Carfentrazone] | 70 | 79 | 82 | 4 | 8 | 8 | – | – | – | – | – | –
2 | Cc1nn(-c2cc(NS(C)(=O)=O)c(Cl)cc2Cl)c(=O)n1C(F)F [Sulfentrazone] | – | – | – | – | – | – | 10 | 0 | 19 | 3 | 44 | 28
